For one molecule, Km results are on record in PMC10947850 (Angewandte Chemie (International ed. in English), 2024).

The assay relates to Fub7. Briefly: steady-state kinetics of aldehyde alkylation. Type of assay: biochemical. As to conditions: co-substrate O-acetyl-L-homoserine; native nucleophile; PLP enzyme.

A word on the Km: it is the concentration of substrate that gives half-maximal velocity.

Consider `CCCCCC=O` [n-hexanal], for which the Km worked out at 11 mM.
